Measured values from patent publication US9611295B2, “Treatment of IL-17 mediated disease by blocking SEFIR-SEFIR interactions” (THE CLEVELAND CLINIC FOUNDATION, priority 2011, dated 2017).

How the values were obtained:
[1] = tested on: IL-17-mediated expression of Cxcl1; test: IL-17-mediated Cxcl1 mRNA expression in MEFs, real-time RT-PCR; assay type: cell-based, mouse; settings: peptides 200 μM for 24 hours, then IL-17 for 3 hours
Method: (§1) FIG. 4 provides data showing that a cell-permeable CC′ loop decoy peptide disrupts the interaction between Act1 and IL-17RA and inhibits IL-17R and IL-25R signaling. FIG. 4A provides sequences of Antennapedia homeodomain (Antp) (SEQ ID NO: 11)and decoy peptides (SEQ ID NOS 23-25 and 17, respectively, in order of appearance) with the Antp sequence underlined. FIG. 4B provides flow cytometry results based on experiments in which MEFs expressing IL-17RB were incubated for 2 or 24 hours with the indicated FITC-tagged peptides (200 μM) and were then analyzed by flow cytometry. […] The percentages of FITC-positive cells in the treated samples are shown. […] FIG. 4D provides Western blot results of experiments in which MEFs expressing IL-17RB were incubated with the indicated peptides (200 μM) for 24 hours after which they were treated with IL-17 or IL-25 and then analyzed by Western blotting with the indicated antibodies. […] The abundances of Cxcl1 and Il13 mRNAs were then measured by real-time RT-PCR. […]
(§2) Decoy peptides are based on surface-exposed regions of the primary sequence of a protein to mimic a putative interaction interface. […] These decoy peptides were also tagged at their C-termini with fluorescein isothiocyanate (FITC) to enable their cell-penetrating efficiency to be evaluated by flow cytometric sanalysis. […]

[2] = tested on: IL-25-mediated expression of Il13; test: IL-25-mediated Il13 mRNA expression in MEFs, real-time RT-PCR; assay type: cell-based, mouse; settings: peptides 200 μM for 24 hours, then IL-25 for 3 hours
Method: as §1, §2

[3] = tested on: IL-25-induced pulmonary inflammation; test: IL-25-induced pulmonary inflammation in BALB/c mice; assay type: in vivo, mouse
Method: FIG. 5 provides bar graph and staining data showing that a cell-permeable CC′ loop decoy peptide inhibits IL-17- and IL-25-induced pulmonary inflammation. Wild-type (WT) female BALB/c mice (n=4 mice per group) were pretreated with DMSO, scrambled peptide, or the CC′ loop decoy peptide for 4 hours, after which they were administered saline, IL-17, or IL-25 intranasally. Mice were sacrificed and analyzed 16 hours after injection with IL-17 or 4 days after injection with IL-25. […] All experiments were performed three times. *P<0.05.
It has been shown that Act1 plays an essential role in IL-17- and IL-25-mediated pulmonary inflammation. Thus, the inventors examined whether the Act1 SEFIR domain CC′ loop decoy peptide ameliorated IL-17- and IL-25-induced airway inflammation in vivo. BALB/c mice were pretreated with scrambled peptide or with the Act1 SEFIR domain CC′ loop decoy peptide for 4 hours, after which we injected the mice intranasally with IL-17 or IL-25. […] Consistently, IL-17-induced lung and airway recruitment of granulocytes was reduced in mice pretreated with the CC′ loop decoy peptide compared to that in mice pretreated with the scrambled peptide (FIG. 5C). The lower grade of pulmonary inflammation in the mice treated with the CC′ loop decoy peptide correlated with the decreased IL-17-dependent expression of genes encoding MCP-1 and GM-CSF in the lung tissues (FIG. 5D). […] IL-25-induced lung and airway recruitment of granulocytes, predominantly eosinophils, as well as mucin production, as determined by Periodic acid-Schiff (PAS) staining, were reduced in mice pretreated with the CC′ loop decoy peptide compared to that in mice pretreated with the scrambled peptide (FIG. 5G). The decreased pulmonary inflammation in […] correlated with decreased expression of genes encoding the TH2-type cytokines IL-5 and IL-13 in the lungs (FIG. 5H).
Intranasal injection of mice with IL-17 and IL-25: Wild-type BALB/c female mice were pretreated with dimethyl sulfoxide (DMSO, the solvent for peptides), scrambled peptide, or the CC′ loop decoy peptide for 4 hours, after which they underwent intranasal administration of saline, IL-17 (4 μg/mouse), or IL-25 (4 μg/mouse). For IL-25-treated mice, decoy peptides were administrated daily through intranasal injection after pretreatment. Mice were anesthetized with isoflurane and sacrificed. BAL fluid was collected 16 hours after injection with IL-17 or 4 days after injection with IL-25. A total of 0.7 ml of HL-1 medium (BioWhittaker®) was used to obtain BAL fluid through trachea with a blunt needle and a 1-ml syringe. Cytospin slide preparations were obtained with a Shandon CytoSpin III Cytocentrifuge (Shandon/Thermo Scientific). Differential leukocyte counts were obtained on cytospin slide preparations after incubation with Diff Quik Giemsa stain. Cytokines in the BAL were analyzed by MultipleX plate (Invitrogen®). H&E and PAS staining were performed on lung tissues after fixation in 10% neutral-buffered formalin and paraffin embedding to detect pulmonary inflammation and for assessment of goblet cell metaplasia and mucin accumulation in airway epithelial cells.

[4] = tested on: IL-25-dependent signaling; test: IL-25-dependent signaling in MEFs by Western blotting (pIκB, pJNK, pERK, pp38 MAPK); assay type: cell-based, mouse
Method: FIG. 4 provides data showing that a cell-permeable CC′ loop decoy peptide disrupts the interaction between Act1 and IL-17RA and inhibits IL-17R and IL-25R signaling. FIG. 4A provides sequences of Antennapedia homeodomain (Antp) (SEQ ID NO: 11)and decoy peptides (SEQ ID NOS 23-25 and 17, respectively, in order of appearance) with the Antp sequence underlined. FIG. 4B provides flow cytometry results based on experiments in which MEFs expressing IL-17RB were incubated for 2 or 24 hours with the indicated FITC-tagged peptides (200 μM) and were then analyzed by flow cytometry. […] The percentages of FITC-positive cells in the treated samples are shown. FIG. 4C provides Western blot results of experiments in which HeLa cells were cotransfected with plasmids encoding FLAG-tagged mAct1 and V5-tagged IL-17RA and were cultured for 24 hours, after which they were incubated for 24 hours with the indicated peptides (200 μM). IL-17RA was immunoprecipitated from the samples with antibody against the V5 tag, and samples were then subjected to Western blotting analysis with the indicated antibodies. FIG. 4D provides Western blot results of experiments in which MEFs expressing IL-17RB were incubated with the indicated peptides (200 μM) for 24 hours after which they were treated with IL-17 or IL-25 and then analyzed by Western blotting with the indicated antibodies. FIG. 4E provides bar graphs showing the results of experiments in which MEFs expressing IL-17RB were incubated with the indicated peptides (200 μM) for 24 hours, after which they were treated with IL-17 or IL-25 for 3 hours. The abundances of Cxcl1 and Il13 mRNAs were then measured by real-time RT-PCR. […]
as §2

DRQIKIWFQNRRMKWKKLDEDEHGLHTKY [CC′ loop decoy peptide]
inhibition of IL-17-mediated expression of Cxcl1 [1]: ~50 % inhibition
inhibition of IL-25-mediated expression of Il13 [2]: ~60 % inhibition
dose dependence of inhibition of IL-25-induced pulmonary inflammation ([3]; data not shown): dose-dependent manner
IL-5 in BAL ([3]; intranasal IL-25, 4 days): substantially attenuated
IL-13 in BAL ([3]; intranasal IL-25, 4 days): substantially attenuated
IL-25-induced eosinophilia (eosinophils in BAL) ([3]; intranasal IL-25, 4 days, vs scrambled peptide, listed as Act1 SEFIR domain CC′ loop decoy peptide): substantially attenuated
IL-25-induced eosinophilia (eosinophils in BAL) ([3]; intranasal IL-25, 4 days, vs scrambled peptide, listed as CC′ decoy peptide): reduced accumulation
IL-25-induced lung and airway recruitment of granulocytes, predominantly eosinophils (H&E) ([3]; vs scrambled peptide): reduced
mucin production (PAS staining) ([3]; vs scrambled peptide): reduced
IL-25-dependent signaling (pIκB, pJNK, pERK, pp38 MAPK) ([4]; MEFs expressing IL-17RB, peptides 200 μM, 24 hours): partly attenuated
dose and time dependence of inhibition of IL-25-dependent signaling and gene expression ([4]; data not shown): dose-and time-dependent manner
